Results as given in patent US20200239530A1, “COMPOUNDS AND METHODS OF MODULATING PROTEIN DEGRADATION” (Vividion Therapeutics, Inc., priority 2017, published 2020).

What was measured:
Test in all cases: Competitive cysteine profiling of cell lysate with desthiobiotin iodoacetamide probe (96-well sample prep)
Format in all cases: binding
[1] = biological target: T1, cysteine residue illustrated in Table 1A or Table 2A (Homo sapiens, UniProt Q5VU92); details: UniProt Q5VU92
T1 construct: Cells were resuspended in cold PBS on ice and sonicated with a probe sonicator to achieve lysis; endogenous in cells
Summary of the method: (§1)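 Sonicated cell lysate (5 mg/ml proteome) was preincubated with compound 1 h at 25 °C, then labelled with desthiobiotin iodoacetamide probe 1 h at 25 °C. After reduction, alkylation and trypsin digestion, probe-labelled peptides were streptavidin-enriched and eluted for mass-spectrometric analysis.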

[2] = biological target: T2, cysteine residue illustrated in Table 1A or Table 2A (Homo sapiens, UniProt Q9Y6I7); details: UniProt Q9Y6I7; KB02 100 uM
T2 construct: Cells were resuspended in cold PBS on ice and sonicated with a probe sonicator to achieve lysis; endogenous in cells
Summary of the method: as §1

[3] = biological target: T3, cysteine residue illustrated in Table 1A or Table 2A (Homo sapiens, UniProt P41002); details: UniProt P41002; 100 uM
T3 construct: Cells were resuspended in cold PBS on ice and sonicated with a probe sonicator to achieve lysis; endogenous in cells
Summary of the method: as §1

[4] = biological target: T4, cysteine residue illustrated in Table 1A or Table 2A (Homo sapiens, UniProt Q6ZT12); details: UniProt Q6ZT12; KB05 100 uM
T4 construct: Cells were resuspended in cold PBS on ice and sonicated with a probe sonicator to achieve lysis; endogenous in cells
Summary of the method: as §1

[5] = biological target: T5, cysteine residue illustrated in Table 1A or Table 2A (Homo sapiens, UniProt P55774); details: UniProt P55774
T5 construct: Cells were resuspended in cold PBS on ice and sonicated with a probe sonicator to achieve lysis; endogenous in cells
Summary of the method: as §1

[6] = biological target: T6, cysteine residue illustrated in Table 1A or Table 2A (Homo sapiens, UniProt Q7Z6J8); details: UniProt Q7Z6J8; KB05 100 uM
T6 construct: Cells were resuspended in cold PBS on ice and sonicated with a probe sonicator to achieve lysis; endogenous in cells
Summary of the method: as §1

[7] = biological target: T7, cysteine residue illustrated in Table 1A or Table 2A (Homo sapiens, UniProt Q5T4S7); details: UniProt Q5T4S7; KB03 500 uM
T7 construct: Cells were resuspended in cold PBS on ice and sonicated with a probe sonicator to achieve lysis; endogenous in cells
Summary of the method: as §1

[8] = biological target: T8, cysteine residue illustrated in Table 1A or Table 2A (Homo sapiens, UniProt O95159); details: UniProt O95159; KB03 100 uM
T8 construct: Cells were resuspended in cold PBS on ice and sonicated with a probe sonicator to achieve lysis; endogenous in cells
Summary of the method: as §1

[9] = biological target: T9, cysteine residue illustrated in Table 1A or Table 2A (Homo sapiens, UniProt Q58WW2); details: UniProt Q58WW2; 100 uM
T9 construct: Cells were resuspended in cold PBS on ice and sonicated with a probe sonicator to achieve lysis; endogenous in cells
Summary of the method: as §1

[10] = biological target: T10, cysteine residue illustrated in Table 1A or Table 2A (Homo sapiens, UniProt O76080); details: UniProt O76080; KB03 100 uM
T10 construct: Cells were resuspended in cold PBS on ice and sonicated with a probe sonicator to achieve lysis; endogenous in cells
Summary of the method: as §1

[11] = biological target: T11, cysteine residue illustrated in Table 1A or Table 2A (Homo sapiens, UniProt Q9H0M0); details: UniProt Q9H0M0; KB03 100 uM
T11 construct: Cells were resuspended in cold PBS on ice and sonicated with a probe sonicator to achieve lysis; endogenous in cells
Summary of the method: as §1

[12] = biological target: T12, cysteine residue illustrated in Table 1A or Table 2A (Homo sapiens, UniProt Q6FIF0); details: UniProt Q6FIF0; KB03 100 uM
T12 construct: Cells were resuspended in cold PBS on ice and sonicated with a probe sonicator to achieve lysis; endogenous in cells
Summary of the method: as §1

[13] = biological target: T13, cysteine residue illustrated in Table 1A or Table 2A (Homo sapiens, UniProt Q13617); details: UniProt Q13617; 100 uM
T13 construct: Cells were resuspended in cold PBS on ice and sonicated with a probe sonicator to achieve lysis; endogenous in cells
Summary of the method: as §1

T1 sequence (Q5VU92 whole entry): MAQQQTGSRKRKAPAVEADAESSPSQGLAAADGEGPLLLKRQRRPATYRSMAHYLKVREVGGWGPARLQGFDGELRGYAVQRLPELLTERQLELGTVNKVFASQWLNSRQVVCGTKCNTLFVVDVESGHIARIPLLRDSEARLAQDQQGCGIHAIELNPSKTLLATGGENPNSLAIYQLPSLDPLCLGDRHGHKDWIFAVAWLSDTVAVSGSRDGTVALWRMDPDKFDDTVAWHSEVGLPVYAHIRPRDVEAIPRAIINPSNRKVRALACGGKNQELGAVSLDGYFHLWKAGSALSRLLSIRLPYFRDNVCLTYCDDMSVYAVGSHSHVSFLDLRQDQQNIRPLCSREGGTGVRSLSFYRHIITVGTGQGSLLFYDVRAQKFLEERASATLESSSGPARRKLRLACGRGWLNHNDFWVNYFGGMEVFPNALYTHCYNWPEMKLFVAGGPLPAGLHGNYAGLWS
T5 sequence (P55774 21-89): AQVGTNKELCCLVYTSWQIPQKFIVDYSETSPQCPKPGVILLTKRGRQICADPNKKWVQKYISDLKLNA
T8 sequence (O95159 whole entry): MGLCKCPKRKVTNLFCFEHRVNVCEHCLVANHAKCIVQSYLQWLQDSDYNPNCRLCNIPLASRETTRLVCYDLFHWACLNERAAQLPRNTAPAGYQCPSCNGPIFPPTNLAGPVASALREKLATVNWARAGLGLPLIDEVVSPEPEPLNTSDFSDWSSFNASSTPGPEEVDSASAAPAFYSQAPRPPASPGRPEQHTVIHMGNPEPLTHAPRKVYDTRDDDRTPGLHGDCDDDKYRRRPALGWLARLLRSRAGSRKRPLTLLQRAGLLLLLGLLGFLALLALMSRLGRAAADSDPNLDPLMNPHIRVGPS
T3 sequence (P41002 whole entry): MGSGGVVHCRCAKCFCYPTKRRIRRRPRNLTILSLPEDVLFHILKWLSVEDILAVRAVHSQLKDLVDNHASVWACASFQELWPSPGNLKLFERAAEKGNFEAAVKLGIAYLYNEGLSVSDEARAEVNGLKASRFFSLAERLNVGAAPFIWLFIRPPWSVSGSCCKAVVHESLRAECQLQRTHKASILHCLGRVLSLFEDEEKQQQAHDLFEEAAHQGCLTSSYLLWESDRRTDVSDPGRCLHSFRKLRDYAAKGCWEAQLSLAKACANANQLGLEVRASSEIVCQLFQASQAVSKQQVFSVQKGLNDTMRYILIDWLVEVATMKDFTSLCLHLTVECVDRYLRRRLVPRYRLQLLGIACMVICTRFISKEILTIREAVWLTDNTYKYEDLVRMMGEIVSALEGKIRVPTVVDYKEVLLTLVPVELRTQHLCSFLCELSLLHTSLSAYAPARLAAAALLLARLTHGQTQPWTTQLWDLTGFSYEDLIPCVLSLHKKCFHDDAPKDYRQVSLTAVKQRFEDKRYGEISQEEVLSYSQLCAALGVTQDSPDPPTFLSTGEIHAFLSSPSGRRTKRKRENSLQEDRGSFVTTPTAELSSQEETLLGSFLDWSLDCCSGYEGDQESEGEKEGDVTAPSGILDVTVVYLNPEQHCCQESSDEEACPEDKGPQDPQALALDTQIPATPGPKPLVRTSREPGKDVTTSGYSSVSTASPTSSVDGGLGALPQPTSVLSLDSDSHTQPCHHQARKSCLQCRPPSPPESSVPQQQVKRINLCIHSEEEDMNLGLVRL
T12 sequence (Q6FIF0 whole entry): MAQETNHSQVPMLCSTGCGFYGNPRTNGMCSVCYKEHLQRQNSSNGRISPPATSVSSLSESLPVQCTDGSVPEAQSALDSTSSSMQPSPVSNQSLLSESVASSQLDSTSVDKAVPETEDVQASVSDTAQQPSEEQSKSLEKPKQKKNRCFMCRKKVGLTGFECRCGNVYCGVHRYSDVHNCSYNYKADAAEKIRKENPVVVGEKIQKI
T6 sequence (Q7Z6J8 whole entry): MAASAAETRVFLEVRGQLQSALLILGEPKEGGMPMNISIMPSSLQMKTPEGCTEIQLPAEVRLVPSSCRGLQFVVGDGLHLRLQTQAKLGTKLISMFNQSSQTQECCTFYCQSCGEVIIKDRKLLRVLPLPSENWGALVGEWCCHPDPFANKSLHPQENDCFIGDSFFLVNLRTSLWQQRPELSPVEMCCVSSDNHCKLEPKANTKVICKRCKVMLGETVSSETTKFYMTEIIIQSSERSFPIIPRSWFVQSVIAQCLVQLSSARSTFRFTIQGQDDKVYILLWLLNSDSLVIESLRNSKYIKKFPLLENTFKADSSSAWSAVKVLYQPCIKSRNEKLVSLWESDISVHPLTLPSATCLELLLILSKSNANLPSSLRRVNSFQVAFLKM
T10 sequence (O76080 whole entry): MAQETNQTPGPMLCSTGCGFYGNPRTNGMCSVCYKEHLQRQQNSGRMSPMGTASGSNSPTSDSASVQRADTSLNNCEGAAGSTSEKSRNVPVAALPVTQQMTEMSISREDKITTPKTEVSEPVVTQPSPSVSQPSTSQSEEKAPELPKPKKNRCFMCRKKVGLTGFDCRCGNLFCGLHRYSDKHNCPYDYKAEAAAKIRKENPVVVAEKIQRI
T9 sequence (Q58WW2 whole entry): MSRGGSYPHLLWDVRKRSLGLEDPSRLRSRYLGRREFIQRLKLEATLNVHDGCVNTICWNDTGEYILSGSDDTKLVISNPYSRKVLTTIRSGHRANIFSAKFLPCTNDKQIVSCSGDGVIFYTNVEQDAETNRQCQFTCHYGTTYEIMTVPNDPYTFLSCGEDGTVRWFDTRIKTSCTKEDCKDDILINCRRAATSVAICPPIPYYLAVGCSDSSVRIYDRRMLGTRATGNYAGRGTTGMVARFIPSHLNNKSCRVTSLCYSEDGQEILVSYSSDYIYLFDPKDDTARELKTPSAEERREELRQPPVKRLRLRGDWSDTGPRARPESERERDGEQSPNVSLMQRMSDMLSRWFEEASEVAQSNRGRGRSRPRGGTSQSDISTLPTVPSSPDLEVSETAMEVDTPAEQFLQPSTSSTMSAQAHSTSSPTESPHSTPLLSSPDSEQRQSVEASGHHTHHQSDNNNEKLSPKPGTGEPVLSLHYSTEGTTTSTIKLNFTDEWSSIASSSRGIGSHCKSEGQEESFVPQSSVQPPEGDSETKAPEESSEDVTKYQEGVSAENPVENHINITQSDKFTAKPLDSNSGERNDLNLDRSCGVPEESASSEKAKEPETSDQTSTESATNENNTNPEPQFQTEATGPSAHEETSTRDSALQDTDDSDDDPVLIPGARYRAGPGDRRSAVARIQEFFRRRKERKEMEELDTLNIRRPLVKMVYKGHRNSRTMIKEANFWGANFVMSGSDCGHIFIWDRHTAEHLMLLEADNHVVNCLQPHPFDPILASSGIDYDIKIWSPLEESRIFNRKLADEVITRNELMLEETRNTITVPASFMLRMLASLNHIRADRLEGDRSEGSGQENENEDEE
T13 sequence (Q13617 whole entry): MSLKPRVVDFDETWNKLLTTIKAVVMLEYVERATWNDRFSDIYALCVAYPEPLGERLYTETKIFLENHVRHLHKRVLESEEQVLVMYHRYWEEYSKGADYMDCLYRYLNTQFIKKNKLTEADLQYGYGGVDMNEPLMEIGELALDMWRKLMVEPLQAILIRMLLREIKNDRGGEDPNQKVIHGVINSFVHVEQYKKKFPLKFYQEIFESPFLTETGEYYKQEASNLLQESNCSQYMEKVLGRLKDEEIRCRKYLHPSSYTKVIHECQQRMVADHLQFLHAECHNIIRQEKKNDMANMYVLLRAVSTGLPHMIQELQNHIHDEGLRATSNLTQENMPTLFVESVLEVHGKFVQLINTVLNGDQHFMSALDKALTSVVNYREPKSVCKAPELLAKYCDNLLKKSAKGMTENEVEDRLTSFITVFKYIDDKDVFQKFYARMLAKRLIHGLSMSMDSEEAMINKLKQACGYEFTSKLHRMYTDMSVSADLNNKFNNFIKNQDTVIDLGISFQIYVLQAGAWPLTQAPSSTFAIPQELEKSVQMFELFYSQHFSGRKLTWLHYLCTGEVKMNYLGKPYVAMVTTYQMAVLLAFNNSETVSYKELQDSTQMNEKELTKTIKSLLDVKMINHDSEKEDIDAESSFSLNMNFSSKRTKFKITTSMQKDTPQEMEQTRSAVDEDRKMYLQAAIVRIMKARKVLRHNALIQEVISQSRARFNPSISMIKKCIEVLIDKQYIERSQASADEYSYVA
T2 sequence (Q9Y6I7 whole entry): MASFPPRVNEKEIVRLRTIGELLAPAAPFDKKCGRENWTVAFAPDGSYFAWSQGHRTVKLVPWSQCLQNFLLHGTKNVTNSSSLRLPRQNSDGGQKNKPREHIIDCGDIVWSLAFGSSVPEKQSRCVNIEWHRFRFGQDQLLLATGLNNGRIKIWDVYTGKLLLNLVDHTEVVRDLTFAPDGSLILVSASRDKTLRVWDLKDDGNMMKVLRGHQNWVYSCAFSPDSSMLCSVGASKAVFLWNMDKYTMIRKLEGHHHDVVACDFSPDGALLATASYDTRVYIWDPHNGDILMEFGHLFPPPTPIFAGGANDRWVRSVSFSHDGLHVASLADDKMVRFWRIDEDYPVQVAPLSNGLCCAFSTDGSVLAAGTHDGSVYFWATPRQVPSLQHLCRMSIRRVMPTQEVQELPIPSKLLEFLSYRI

In the case of COc1ccc2c(c1)CCCN2C(=O)CCl [KB02], the “KB02_100 uM_percent_inhibition” value ([1]; 100 uM) is reported as 25%, the “KB02_500 uM_percent_inhibition” value ([1]; 500 uM) is reported as 29% and the “KB02_100 uM_percent_inhibition” value [2] is reported as 5%.

For C=CC(=O)N(c1ccccc1)c1ccc(Br)cc1 [KB05], the “KB05_100 uM_percent_inhibition” value [3] was 49%, the “KB05_100 uM_percent_inhibition” value [4] was 41% and the “KB05_100 uM_percent_inhibition” value ([5]; 100 uM) was 5%. The “KB05_500 uM_percent_inhibition” value ([5]; 500 uM) was 51% and the “KB05_100 uM_percent_inhibition” value [6] was 13%.

For O=C(CCl)Nc1cc(C(F)(F)F)cc(C(F)(F)F)c1 [KBO3], the “KB03_500 uM_percent_inhibition” value [7] was 69%, the “KB03_100 uM_percent_inhibition” value [8] was 15% and the “KB03_100 uM_percent_inhibition” value [9] was 67%. The “KB03_100 uM_percent_inhibition” value [10] was 14%, the “KB03_100 uM_percent_inhibition” value [11] was 61% and the “KB03_100 uM_percent_inhibition” value [12] was 8%. The “KB03_100 uM_percent_inhibition” value [13] was 30%.
